Experimental data published in paper PMC6177136, “Hybrid topoisomerase I and HDAC inhibitors as dual action anticancer agents” (PLoS ONE, 2018).

Tests used:
L-428 = experiment: Cytotoxicity assay (MTT, 72 h) L-428; format: cell-based, Human; conditions: Homo sapiens, L-428; 72 h, MTT assay; read-out: IC50 ± SD L-428
Method: (§1) Human tumor cells were seeded in 96-well cell culture plastic plates, allowed to attach, and exposed to scalar concentrations of the test compounds.

Acetylated Histone H4 = experiment: Western blot, acetylation of histone H4 in NCI-H460 cells; format: cell-based, Human; conditions: 24 h; SN38 0.05 μM, SAHA 5 μM, 3b and 3d 0.125–0.2–0.5 μM
Method: (§2) The supernatant, containing the total proteins extracts, were transferred in new vials. The protein concentration was measured by Bradford Protein Assay. Equal amounts of proteins for each sample were then resolved by SDS-PAGE and loaded on 10–12% polyacrilamide gels. The proteins were then transferred on nitrocellulose membranes. Molecular weights were estimated based upon the relative migration with molecular weight protein markers.
(§3) The non-specific binding was blocked by incubation of membranes in TBS-tween (25 mM Tris, 150 mM NaCl, 0.1% Tween 20) with 5% nonfat dry milk (BIORAD, Milan) for 60 minutes. Subsequently, the membrane was incubated overnight with primary antibodies: anti-Histone H4 (Millipore, 1:500), anti-acetyl-H4 (Santa Cruz, 1:1000) anti-p21 (Santa Cruz, 1:1000), anti-acetyl-tubulin (abcam, 1:1000), anti-α-tubulin (Sigma, 1:5000), anti β-actin (Sigma, 1:5000) and anti-Topoisomerase 1 (Santa Cruz, 1:500). After three washes with TBST blots were incubated with HRP-coniugated secondary anti-mouse and anti-rabbit (Santa Cruz, 1:5000) 1 hour at room temperature. After three washes with TBST the blots were developed with ECL substrate (GE Healthcare) and chemiluminescence detected by ChemiDoc Imaging System (Biorad). The optical density of the protein bands detected by western blotting was normalized on α -tubulin levels and analyzed by ChemiDoc software (Biorad). […]

H929 = experiment: Cytotoxicity assay (MTT, 72 h) H929; format: cell-based; conditions: Homo sapiens, NCI-H929, read-out: IC50 ± SD H929
THP1 = experiment: Cytotoxicity assay (MTT, 72 h) THP1; format: cell-based; conditions: Homo sapiens, THP-1, read-out: IC50 ± SD THP1
HepG2 = experiment: Cytotoxicity assay (SRB, 72 h) HepG2; format: cell-based, Human; conditions: Homo sapiens, HepG2, read-out: IC50 ± SD HepG2
MM288 = experiment: Cytotoxicity assay, primary mesothelioma MM288; format: cell-based, Human; conditions: Homo sapiens; epithelioid, 72 h, SBR assay; read-out: IC50 ± SD MM288
K 562 = experiment: Cytotoxicity assay (MTT, 72 h) K 562; format: cell-based; conditions: Homo sapiens, K562, read-out: IC50 ± SD K 562
RPMI-8226 = experiment: Cytotoxicity assay (MTT, 72 h) RPMI-8226; format: cell-based; conditions: Homo sapiens, read-out: IC50 ± SD RPMI-8226
Method: as §1

A2780 = experiment: Cytotoxicity assay (SRB, 72 h) A2780; format: cell-based, Human; conditions: Homo sapiens, A2780, read-out: IC50 ± SD A2780
NCI-H460 = experiment: Cytotoxicity assay (SRB, 72 h) NCI-H460; format: cell-based, Human; conditions: Homo sapiens, NCI-H460; 72 h, SRB assay; read-out: IC50 ± SD NCI-H460
OCI-LY3 = experiment: Cytotoxicity assay (MTT, 72 h) OCI-LY3; format: cell-based, Human; conditions: Homo sapiens, OCI-Ly3; 72 h, MTT assay; read-out: IC50 ± SD OCI-LY3
Method: as §1

MM487 = experiment: Cytotoxicity assay, primary mesothelioma MM487; format: cell-based, Human; conditions: Homo sapiens, MM487; biphasic, 72 h, SBR assay; read-out: IC50 ± SD MM487
A2780-Dx = experiment: Cytotoxicity assay (SRB, 72 h) A2780-Dx; format: cell-based, Human
MAVER-2 = experiment: Cytotoxicity assay (MTT, 72 h) MAVER-2; format: cell-based, Human; conditions: Homo sapiens, read-out: IC50 ± SD MAVER-2
p53 = experiment: Western blot, p53 in NCI-H460 cells; format: cell-based, Human; conditions: 24 h; SAHA 5 μM, SN38 0.05 μM, 3d 0.125–0.2–0.5 μM
Method: as §2
The non-specific binding was blocked by incubation of membranes in TBS-tween (25 mM Tris, 150 mM NaCl, 0.1% Tween 20) with 5% nonfat dry milk (BIORAD, Milan) for 60 minutes. Subsequently, the membrane was incubated overnight with primary antibodies: anti-Histone H4 (Millipore, 1:500), anti-acetyl-H4 (Santa Cruz, 1:1000) anti-p21 (Santa Cruz, 1:1000), anti-acetyl-tubulin (abcam, 1:1000), anti-α-tubulin (Sigma, 1:5000), anti β-actin (Sigma, 1:5000) and anti-Topoisomerase 1 (Santa Cruz, 1:500). After three washes with TBST blots were incubated with HRP-coniugated secondary anti-mouse and anti-rabbit (Santa Cruz, 1:5000) 1 hour at room temperature. After three washes with TBST the blots were developed with ECL substrate (GE Healthcare) and chemiluminescence detected by ChemiDoc Imaging System (Biorad). The optical density of the protein bands detected by western blotting was normalized on α -tubulin levels and analyzed by ChemiDoc software (Biorad).
Cells were lysed in 0.5% NP-40 and 40 μg of total proteins were loaded on NuPAGE 4–12% (Invitrogen), transferred to a nitrocellulose paper and probed with specific antibodies.

HDAC2 = HDAC2 (Homo sapiens, UniProt Q92769); experiment: HDAC profiling HDAC2; format: biochemical; conditions: purified isoform, 10 concentrations from 10 μM, triplicate
Chain of HDAC2 (Q92769 whole entry, canonical isoform): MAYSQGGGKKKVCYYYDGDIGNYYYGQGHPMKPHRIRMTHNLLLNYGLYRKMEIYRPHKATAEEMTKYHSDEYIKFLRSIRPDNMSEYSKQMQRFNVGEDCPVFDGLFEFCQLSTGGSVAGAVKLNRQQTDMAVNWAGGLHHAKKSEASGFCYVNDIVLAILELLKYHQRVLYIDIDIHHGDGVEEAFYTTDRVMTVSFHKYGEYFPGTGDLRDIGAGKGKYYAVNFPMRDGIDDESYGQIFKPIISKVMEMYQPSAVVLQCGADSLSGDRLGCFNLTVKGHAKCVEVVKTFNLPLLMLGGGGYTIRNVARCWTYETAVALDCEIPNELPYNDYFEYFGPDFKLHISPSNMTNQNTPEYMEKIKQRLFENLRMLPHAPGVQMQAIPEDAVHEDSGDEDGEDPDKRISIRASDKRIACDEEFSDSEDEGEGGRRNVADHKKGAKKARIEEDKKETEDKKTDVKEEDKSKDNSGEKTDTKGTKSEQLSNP

Jurkat-cp = experiment: Cytotoxicity assay (MTT, 72 h) Jurkat-cp; format: cell-based; conditions: Homo sapiens, read-out: IC50 ± SD Jurkat-cp
MM481 = experiment: Cytotoxicity assay, primary mesothelioma MM481; format: cell-based, Human; conditions: Homo sapiens; epithelioid, 72 h, SBR assay; read-out: IC50 ± SD MM481
[1] = mouse, in vivo, iv, 45 mg/kg
Z-138 = experiment: Cytotoxicity assay (MTT, 72 h) Z-138; format: cell-based; conditions: Homo sapiens, read-out: IC50 ± SD Z-138
RAJI = experiment: Cytotoxicity assay (MTT, 72 h) RAJI; format: cell-based; conditions: Homo sapiens, read-out: IC50 ± SD RAJI
MV4-11 = experiment: Cytotoxicity assay (MTT, 72 h) MV4-11; format: cell-based; conditions: Homo sapiens, read-out: IC50 ± SD MV4-11
KM-H2 = experiment: Cytotoxicity assay (MTT, 72 h) KM-H2; format: cell-based, Human; conditions: Homo sapiens, KM-H2; 72 h, MTT assay; read-out: IC50 ± SD KM-H2
HDAC6 = HDAC6 (Homo sapiens, UniProt Q9UBN7); experiment: HDAC profiling HDAC6; format: biochemical; conditions: purified isoform, 10 concentrations from 10 μM, triplicate
Chain of HDAC6 (Q9UBN7 whole entry, canonical isoform): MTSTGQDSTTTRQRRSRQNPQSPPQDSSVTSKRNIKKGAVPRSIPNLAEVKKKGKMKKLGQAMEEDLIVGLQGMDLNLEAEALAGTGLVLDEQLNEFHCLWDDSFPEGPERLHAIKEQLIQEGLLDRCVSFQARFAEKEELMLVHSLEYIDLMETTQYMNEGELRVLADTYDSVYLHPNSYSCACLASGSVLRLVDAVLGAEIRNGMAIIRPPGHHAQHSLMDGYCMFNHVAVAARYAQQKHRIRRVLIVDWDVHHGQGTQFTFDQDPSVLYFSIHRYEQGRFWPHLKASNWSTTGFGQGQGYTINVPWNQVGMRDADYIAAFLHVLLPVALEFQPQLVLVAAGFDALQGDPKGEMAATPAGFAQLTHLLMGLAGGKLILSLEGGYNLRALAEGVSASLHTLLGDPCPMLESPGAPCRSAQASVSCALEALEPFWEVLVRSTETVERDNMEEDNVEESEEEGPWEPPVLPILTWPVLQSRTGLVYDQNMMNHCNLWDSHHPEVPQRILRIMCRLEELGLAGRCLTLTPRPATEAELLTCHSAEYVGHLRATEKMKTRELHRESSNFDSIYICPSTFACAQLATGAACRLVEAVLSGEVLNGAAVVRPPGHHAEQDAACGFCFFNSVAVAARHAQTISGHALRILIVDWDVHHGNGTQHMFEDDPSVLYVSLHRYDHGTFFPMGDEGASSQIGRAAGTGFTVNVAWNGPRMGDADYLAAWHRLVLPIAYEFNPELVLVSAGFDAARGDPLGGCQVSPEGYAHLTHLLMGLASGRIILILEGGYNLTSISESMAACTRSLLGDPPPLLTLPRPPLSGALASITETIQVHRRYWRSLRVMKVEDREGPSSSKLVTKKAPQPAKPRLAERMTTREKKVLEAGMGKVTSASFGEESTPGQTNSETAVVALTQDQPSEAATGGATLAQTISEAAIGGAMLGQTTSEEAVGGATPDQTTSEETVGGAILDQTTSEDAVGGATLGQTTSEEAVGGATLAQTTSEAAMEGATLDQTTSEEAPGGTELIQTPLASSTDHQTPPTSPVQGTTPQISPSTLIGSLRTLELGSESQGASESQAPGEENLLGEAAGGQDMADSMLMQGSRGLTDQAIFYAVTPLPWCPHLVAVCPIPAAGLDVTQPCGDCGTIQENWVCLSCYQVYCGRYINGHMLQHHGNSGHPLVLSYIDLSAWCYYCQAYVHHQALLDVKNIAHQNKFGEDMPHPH

MM473 = experiment: Cytotoxicity assay, primary mesothelioma MM473; format: cell-based, Human; conditions: Homo sapiens, MM473; epithelioid, 72 h, SBR assay; read-out: IC50 ± SD MM473
[2] = test system: series of human tumor cell lines; experiment: Antiproliferative activity, series of human tumor cell lines (summary); format: cell-based; conditions: span over the cell line panel, 72 h, SRB assay, read-out: IC50 across the human tumor cell lines of Table 3
p21 = experiment: Western blot, p21 in NCI-H460 cells; format: cell-based, Human; conditions: 24 h; SAHA 5 μM, SN38 0.05 μM, 3d 0.125–0.2–0.5 μM
Method: as §2, §3

CC[C@@]1(O)C(=O)OCc2c1cc1n(c2=O)Cc2c-1nc1ccc(O)cc1c2C=NOCCCCCC(=O)NO [Compound 3d, 6-(10-hydroxycamptothecin-7-ylmethyleneaminooxy)-hexanoic acid hydroxyamide]
IC50 (L-428): 0.43 ± 0.07 µM | accumulation of acetylated histone H4 (Acetylated Histone H4): H4 and tubulin acetylation in a dose dependent manner | IC50 (H929): 1.1 ± 0.4 µM | IC50 (THP1): 0.22 ± 0.09 µM | IC50 (HepG2): 0.11 ± 0.03 µM | IC50 (MM288): 0.48 ± 0.1 µM | IC50 (K 562): 0.94 ± 0.2 µM | IC50 (RPMI-8226): 4.1 ± 1.4 µM | IC50 (A2780): 0.27 ± 0.08 µM | IC50 (NCI-H460): 0.27 ± 0.02 µM | IC50 (OCI-LY3): 0.018 ± 0.005 µM | IC50 (MM487): 0.2 ± 0.05 µM | RI (Resistance Index) (A2780-Dx; A2780-Dx versus A2780): 6.6 | IC50 (A2780-Dx; Homo sapiens, A2780/DX, 72 h, SRB assay, multidrug-resistant ovarian carcinoma, read-out: IC50 ± SD A2780-Dx): 1.8 ± 0.4 µM | IC50 (MAVER-2): 0.012 ± 0.001 µM | p53 activation (p53): induced p53 activation | IC50 (HDAC2): 0.0933 µM | IC50 (Jurkat-cp): 0.23 ± 0.05 µM | IC50 (MM481): 11.7 ± 1.2 µM | body weight [1]: no reduction in body weight was observed | IC50 (Z-138): 0.006 ± 0.001 µM | IC50 (RAJI): 0.077 ± 0.02 µM | IC50 (MV4-11): 2.73 ± 0.3 µM | IC50 (KM-H2): 0.39 ± 0.1 µM | IC50 (HDAC6): 0.00156 µM | IC50 (MM473): 2.1 ± 0.5 µM | IC50 [2]: 0.03 to 0.4 µM | expression of p21 (p21): activated the expression of p21
